According to the NIST ThermoML archive (doi:10.1021/je100353j):

Experiment: xn = mol fraction of the nth substance listed
Conditions: Liquid

COC(=O)OC [dimethyl carbonate] + C1CCCCC1
mass density [kg/m3]
Conditions | x1 = 0.1 | x1 = 0.2 | x1 = 0.3 | x1 = 0.4 | x1 = 0.5 | x1 = 0.6 | x1 = 0.7 | x1 = 0.8 | x1 = 0.9 | x1 = 1
293.15 K, 100 kPa | 797.9 | 818.3 | 842.3 | 866 | 893.7 | 923.6 | 957.5 | 991 | 1030.4 | 1069.8
293.15 K, 5000 kPa | 802.2 | 822.7 | 846.9 | 870.7 | 898.5 | 928.4 | 962.3 | 995.8 | 1035.1 | 1074.4
293.15 K, 10000 kPa | 806.2 | 827 | 851.2 | 875.3 | 903.1 | 933 | 966.9 | 1000.3 | 1039.5 | 1078.6
293.15 K, 20000 kPa | 813.9 | 835 | 859.6 | 883.9 | 911.8 | 941.8 | 975.7 | 1009 | 1048 | 1086.9
293.15 K, 30000 kPa | 821.3 | 842.7 | 867.5 | 892 | 920 | 950 | 983.8 | 1017.1 | 1055.8 | 1094.5
293.15 K, 40000 kPa | 828.5 | 850.2 | 875.2 | 899.8 | 928 | 958 | 991.8 | 1025 | 1063.5 | 1101.9
298.15 K, 100 kPa | 792.3 | 812.5 | 836.3 | 860 | 887.4 | 917 | 950.8 | 984.2 | 1023.2 | 1063.2
298.15 K, 5000 kPa | 796.9 | 817.3 | 841.3 | 865.1 | 892.6 | 922.2 | 956 | 989.4 | 1028.2 | 1068
298.15 K, 10000 kPa | 801.2 | 821.8 | 846 | 870 | 897.5 | 927.1 | 960.8 | 994.2 | 1032.8 | 1072.4
298.15 K, 20000 kPa | 809.2 | 830.2 | 854.6 | 878.8 | 906.5 | 936.1 | 969.8 | 1003.1 | 1041.5 | 1080.8
298.15 K, 30000 kPa | 816.5 | 837.8 | 862.5 | 887 | 914.8 | 944.5 | 978.2 | 1011.4 | 1049.7 | 1088.7
298.15 K, 40000 kPa | 823.2 | 844.8 | 869.8 | 894.5 | 922.5 | 952.3 | 986.1 | 1019.3 | 1057.4 | 1096.2
303.15 K, 100 kPa | 786.9 | 806.9 | 830.4 | 854.1 | 881.2 | 910.1 | 944.1 | 977.4 | 1015.8 | 1056.5
303.15 K, 5000 kPa | 791.4 | 811.7 | 835.4 | 859.2 | 886.4 | 915.4 | 949.3 | 982.6 | 1020.9 | 1061.3
303.15 K, 10000 kPa | 796 | 816.5 | 840.4 | 864.4 | 891.6 | 920.6 | 954.5 | 987.7 | 1025.8 | 1065
303.15 K, 20000 kPa | 804.5 | 825.3 | 849.5 | 873.8 | 901.2 | 930.3 | 964.1 | 997.1 | 1035 | 1074.7
303.15 K, 30000 kPa | 812.1 | 833.4 | 857.9 | 882.3 | 909.9 | 939.1 | 972.8 | 1005.8 | 1043.6 | 1082.9
303.15 K, 40000 kPa | 819 | 840.7 | 865.4 | 890.1 | 917.8 | 947.2 | 980.9 | 1013.8 | 1051.4 | 1090.4
308.15 K, 100 kPa | 781.2 | 801.4 | 824.4 | 847.9 | 874.8 | 903.4 | 936.9 | 969.7 | 1008.6 | 1049.8
308.15 K, 5000 kPa | 786.1 | 806.5 | 829.7 | 853.4 | 880.3 | 908.9 | 942.3 | 975.1 | 1013.7 | 1054.6
308.15 K, 10000 kPa | 790.8 | 811.4 | 834.8 | 858.6 | 885.6 | 914.2 | 947.7 | 980.4 | 1018.8 | 1059.4
308.15 K, 20000 kPa | 799.5 | 820.5 | 844.2 | 868.3 | 895.5 | 924.2 | 957.6 | 990.2 | 1028.4 | 1068.5
308.15 K, 30000 kPa | 807.4 | 828.7 | 852.8 | 877.1 | 904.4 | 933.3 | 966.7 | 999.3 | 1037.3 | 1077
308.15 K, 40000 kPa | 814.6 | 836.3 | 860.6 | 885.2 | 912.7 | 941.7 | 975 | 1007.6 | 1045.4 | 1084.8
313.15 K, 100 kPa | 775.6 | 795.8 | 818.5 | 841.9 | 868.6 | 896.7 | 929.7 | 962.3 | 1001.1 | 1043
313.15 K, 5000 kPa | 780.8 | 801.3 | 824.1 | 847.7 | 874.4 | 902.6 | 935.5 | 968 | 1006.6 | 1048.1
313.15 K, 10000 kPa | 785.6 | 806.2 | 829.3 | 853 | 879.8 | 908.1 | 941 | 973.5 | 1011.9 | 1053
313.15 K, 20000 kPa | 794.8 | 815.8 | 839.2 | 863.2 | 890.2 | 918.5 | 951.4 | 983.8 | 1021.8 | 1062.3
313.15 K, 30000 kPa | 802.9 | 824.2 | 848 | 872.2 | 899.4 | 927.9 | 960.8 | 993.1 | 1030.9 | 1071
313.15 K, 40000 kPa | 810.5 | 832.1 | 856.2 | 880.7 | 908 | 936.7 | 969.5 | 1001.9 | 1039.4 | 1079
